Data from ChEMBL document CHEMBL3862001, “Tetrahydropyrazolo[4,3-c]pyridine derivatives as potent and peripherally selective cannabinoid-1 (CB1) receptor inverse agonists” (Bioorg Med Chem Lett, 2016).

Experiments:
Cannabinoid receptor 1 = Cannabinoid receptor 1 (Homo sapiens, UniProt P21554); experiment: Inverse agonist activity at human CB1 receptor transfected in HEK293 cells assessed as increase of forskolin-induced cAMP production incubated for 30 mins followed by d2 labeled cAMP addition measured after 60 mins by HTRF assay; format: functional, cell-based
Sequence of Cannabinoid receptor 1 (P21554 whole entry): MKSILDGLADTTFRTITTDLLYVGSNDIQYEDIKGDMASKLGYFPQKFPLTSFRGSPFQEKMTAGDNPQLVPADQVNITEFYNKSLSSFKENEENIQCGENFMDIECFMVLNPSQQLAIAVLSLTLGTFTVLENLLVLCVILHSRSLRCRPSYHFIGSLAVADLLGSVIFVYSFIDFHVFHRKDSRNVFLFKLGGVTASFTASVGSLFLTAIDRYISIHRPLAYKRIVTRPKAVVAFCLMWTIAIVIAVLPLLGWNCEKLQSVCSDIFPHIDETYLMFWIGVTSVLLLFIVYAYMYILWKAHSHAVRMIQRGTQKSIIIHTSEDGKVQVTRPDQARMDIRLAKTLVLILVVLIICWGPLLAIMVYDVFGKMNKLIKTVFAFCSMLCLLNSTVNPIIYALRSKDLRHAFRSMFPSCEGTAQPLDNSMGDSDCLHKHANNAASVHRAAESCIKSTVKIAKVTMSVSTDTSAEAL

Cannabinoid receptor 2 = Cannabinoid receptor 2 (Homo sapiens, UniProt P34972); experiment: Inverse agonist activity at human CB2 receptor transfected in HEK293 cells assessed as increase of forskolin-induced cAMP production incubated for 30 mins followed by d2 labeled cAMP addition measured after 60 mins by HTRF assay; format: functional, cell-based
Sequence of Cannabinoid receptor 2 (P34972 whole entry): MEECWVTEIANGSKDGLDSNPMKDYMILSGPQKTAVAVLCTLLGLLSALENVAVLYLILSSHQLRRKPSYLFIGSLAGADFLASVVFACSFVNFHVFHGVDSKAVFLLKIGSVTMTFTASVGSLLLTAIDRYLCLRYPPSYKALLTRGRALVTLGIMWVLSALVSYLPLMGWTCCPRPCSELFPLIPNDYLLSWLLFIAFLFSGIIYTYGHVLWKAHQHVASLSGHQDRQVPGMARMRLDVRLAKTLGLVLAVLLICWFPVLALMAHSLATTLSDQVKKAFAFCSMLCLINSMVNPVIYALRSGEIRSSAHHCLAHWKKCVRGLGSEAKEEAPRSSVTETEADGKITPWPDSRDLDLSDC

[1] = Plasma concentration in C57BL/6J mouse at 20 mg/kg, po measured at 2 hrs; format: ADME, organism-based
[2] = Drug uptake in C57BL/6J mouse brain at 20 mg/kg, po measured at 2 hrs; format: ADME, organism-based; details: for concentration at 2 h: C57BL/6J, brain, read-out: Drug uptake; for Drug uptake: in vivo, 2 h
[3] = Plasma concentration in C57BL/6J mouse at 20 mg/kg, po measured at 4 hrs; format: ADME, organism-based
[4] = Drug uptake in C57BL/6J mouse brain at 20 mg/kg, po measured at 4 hrs; format: ADME, organism-based; details: for Drug uptake: in vivo, 4 h
[5] = Ratio of drug level in brain to plasma in C57BL/6J mouse at 20 mg/kg, po measured at 4 hrs; format: ADME, organism-based; details: read-out: BPR
[6] = Plasma concentration in C57BL/6J mouse at 30 mg/kg, po measured at 4 hrs; format: ADME, organism-based
[7] = Drug uptake in C57BL/6J mouse brain at 30 mg/kg, po measured at 4 hrs; format: ADME, organism-based; details: read-out: Drug uptake
[8] = Ratio of drug level in brain to plasma in C57BL/6J mouse at 20 mg/kg, po measured at 2 hrs; format: ADME, organism-based; details: read-out: BPR
[9] = Ratio of drug level in brain in C57BL/6J mouse at 20 mg/kg, po measured at 4 hrs to drug level in plasma in C57BL/6J mouse at 20 mg/kg, po measured at 2 hrs; format: ADME, organism-based; details: read-out: BPR

Compound | EC50 (Cannabinoid receptor 1) | EC50 (Cannabinoid receptor 2) | concentration at 2 h [1] | concentration at 2 h [2] | concentration at 4 h [3] | Drug uptake [4] | Kp at 4 h [5] | concentration at 4 h [6] | concentration at 4 h [7] | Drug uptake [2] | Kp at 2 h [8] | Kp [9] | concentration at 4 h ([4]; C57BL/6J, brain, read-out: Drug uptake)
COc1ccc(/C=C2\CN(C(=O)Cn3ccnc3)Cc3c(C(=O)N[C@H](C)c4ccccc4)nn(-c4ccc(Cl)cc4Cl)c32)cc1 | 5 nM | 370 nM | 580 nM | < 5 ng/mL | – | – | – | – | – | – | – | – | –
COc1ccc(/C=C2\CN(C(=O)CN)Cc3c(C(=O)N[C@H](C)c4ccccc4)nn(-c4ccc(Cl)cc4Cl)c32)cc1 | 24 nM | > 10000 nM | – | – | 1530 nM | 0.07 nmol/g | 0.04 | – | – | – | – | – | –
C[C@@H](NC(=O)c1nn(-c2ccc(Cl)cc2)c2c1CN(C(=O)CNS(C)(=O)=O)C/C2=C\c1ccc(F)cc1)c1ccccn1 | 30 nM | > 10000 nM | – | – | 1720 nM | 0.09 nmol/g | 0.05 | – | – | – | – | – | –
COc1ccc(/C=C2\CN(C(=O)c3cc[nH]n3)Cc3c(C(=O)N[C@H](C)c4ccccc4)nn(-c4ccc(Cl)cc4Cl)c32)cc1 | 32 nM | 4660 nM | 1720 nM | < 5 ng/mL | – | – | – | – | – | – | – | – | –
C[C@@H](NC(=O)c1nn(-c2ccc(Cl)c(Cl)c2)c2c1CN(C(=O)Cn1cncn1)C/C2=C\c1ccc(Cl)cc1)c1ccccn1 | 6 nM | 7850 nM | – | – | 4600 nM | 0.35 nmol/g | 0.08 | – | – | – | – | – | –
C[C@@H](NC(=O)c1nn(-c2ccc(Cl)cc2)c2c1CN(C(=O)c1nc[nH]n1)C/C2=C\c1ccc(Cl)cc1)c1ccccc1 | 17 nM | > 10000 nM | 9780 nM | – | – | – | – | – | – | 0.47 nmol/g | 0.05 | – | –
C[C@@H](NC(=O)c1nn(-c2ccc(Cl)cc2Cl)c2c1CN(C(=O)Cn1cnnn1)C/C2=C\c1ccc(F)cc1)c1ccccc1 | 8 nM | 3240 nM | 9190 nM | – | – | 0.43 nmol/g | – | – | – | – | – | 0.05 | –
C[C@@H](NC(=O)c1nn(-c2ccc(Cl)cc2Cl)c2c1CN(C(=O)[C@@H](O)CO)C/C2=C\c1ccc(Cl)cc1)c1ccccc1 | 18 nM | 2910 nM | – | – | 2770 nM | 0.17 nmol/g | 0.06 | – | – | – | – | – | –
C[C@@H](NC(=O)c1nn(-c2ccc(Cl)cc2)c2c1CN(C(=O)c1nc[nH]n1)C/C2=C\c1ccc(Cl)cc1)c1ccccn1 | 28 nM | > 10000 nM | 2380 nM | – | – | – | – | – | – | 0.1 nmol/g | 0.04 | – | –
COc1ccc(/C=C2\CN(C(=O)c3nc[nH]n3)Cc3c(C(=O)N[C@H](C)c4ccccc4)nn(-c4ccc(Cl)cc4Cl)c32)cc1 | 15 nM | 1760 nM | 1480 nM | – | – | – | – | – | – | 0.05 nmol/g | 0.03 | – | –
COc1ccc(/C=C2\CN(C(=O)Cn3cnnn3)Cc3c(C(=O)N[C@H](C)c4ccccc4)nn(-c4ccc(Cl)cc4Cl)c32)cc1 | 6 nM | 1130 nM | 2960 nM | – | – | – | – | – | – | 0.07 nmol/g | 0.02 | – | –
COc1ccc(/C=C2\CN(C(=O)Cn3ccnn3)Cc3c(C(=O)N[C@H](C)c4ccccc4)nn(-c4ccc(Cl)cc4Cl)c32)cc1 | 4 nM | 1270 nM | 30 nM | < 5 ng/mL | – | – | – | – | – | – | – | – | –
C[C@@H](NC(=O)c1nn(-c2ccc(Cl)cc2Cl)c2c1CN(C(=O)c1nc[nH]n1)C/C2=C\c1ccc(F)cc1)c1ccccc1 | 15 nM | 1310 nM | 4480 nM | – | – | – | – | – | – | 0.25 nmol/g | 0.06 | – | –
C[C@@H](NC(=O)c1nn(-c2ccc(Cl)c(Cl)c2)c2c1CN(C(=O)Cn1cnnn1)C/C2=C\c1ccc(F)cc1)c1ccccn1 | 7 nM | 3660 nM | – | – | 2820 nM | 0.15 nmol/g | 0.05 | – | – | – | – | – | –
C[C@@H](NC(=O)c1nn(-c2ccc(Cl)cc2Cl)c2c1CN(C(=O)CNS(C)(=O)=O)C/C2=C\c1ccc(Cl)cc1)c1ccccn1 | 17 nM | > 10000 nM | – | – | 3320 nM | 0.17 nmol/g | 0.05 | – | – | – | – | – | –
C[C@@H](NC(=O)c1nn(-c2ccc(Cl)cc2)c2c1CN(C(=O)c1nc[nH]n1)C/C2=C\c1ccc(F)cc1)c1ccccc1 | 12 nM | > 10000 nM | 1320 nM | – | – | – | – | – | – | 0.09 nmol/g | 0.07 | – | –

Results, then the molecule that gave them:

EC50 (Cannabinoid receptor 1) | EC50 (Cannabinoid receptor 2) | concentration at 2 h [1] | concentration at 2 h [2] | concentration at 4 h [3] | Drug uptake [4] | Kp at 4 h [5] | concentration at 4 h [6] | concentration at 4 h [7] | Drug uptake [2] | Kp at 2 h [8] | Kp [9] | concentration at 4 h ([4]; C57BL/6J, brain, read-out: Drug uptake) | Compound
8 nM | 1450 nM | – | – | 2090 nM | 0.08 nmol/g | 0.04 | – | – | – | – | – | – | COc1ccc(/C=C2\CN(C(=O)CS(N)(=O)=O)Cc3c(C(=O)N[C@H](C)c4ccccn4)nn(-c4ccc(Cl)cc4Cl)c32)cc1
9 nM | > 10000 nM | – | – | – | – | – | 2290 nM | < 5 ng/mL | – | – | – | – | C[C@@H](NC(=O)c1nn(-c2ccc(Cl)cc2Cl)c2c1CN(C(=O)CC(N)=O)C/C2=C\c1ccc(F)cc1)c1ccccn1
6 nM | 650 nM | – | – | 1360 nM | 0.05 nmol/g | 0.04 | – | – | – | – | – | – | COc1ccc(/C=C2\CN(C(=O)CCS(N)(=O)=O)Cc3c(C(=O)N[C@H](C)c4ccccn4)nn(-c4ccc(Cl)cc4Cl)c32)cc1
20 nM | > 10000 nM | – | – | 4250 nM | 0.12 nmol/g | 0.03 | – | – | – | – | – | – | C[C@@H](NC(=O)c1nn(-c2ccc(Cl)cc2Cl)c2c1CN(C(=O)CCC(N)=O)C/C2=C\c1ccc(F)cc1)c1ccccn1
6 nM | 8610 nM | – | – | 2280 nM | 0.07 nmol/g | 0.03 | – | – | – | – | – | – | C[C@@H](NC(=O)c1nn(-c2ccc(Cl)cc2Cl)c2c1CN(C(=O)Cn1cnnn1)C/C2=C\c1ccc(F)cc1)c1ccccn1
11 nM | 1940 nM | – | – | 90 nM | – | – | – | – | – | – | – | < 5 ng/mL | COc1ccc(/C=C2\CN(C(=O)CC(=O)O)Cc3c(C(=O)N[C@H](C)c4ccccn4)nn(-c4ccc(Cl)cc4Cl)c32)cc1
22 nM | 5550 nM | – | – | 2410 nM | 0.18 nmol/g | 0.08 | – | – | – | – | – | – | C[C@@H](NC(=O)c1nn(-c2ccc(Cl)cc2Cl)c2c1CN(C(=O)[C@@H](O)CO)C/C2=C\c1ccc(Cl)cc1)c1ccccn1
